Molecules are shown by their SMILES. Converted amounts (≈) assume the structure as drawn.

These results are taken from patent publication US6475434B1, “Composition and methods for preventing and removing biofilm embedded microorganisms from the surface of medical devices” (Baylor College of Medicine, priority 1998, dated 2002).

The test system of assay [1] is Staphylococcus epidermidis. Briefly: Minimal bactericidal concentration for the studied strain. The conditions noted are these: studied strain of Staphylococcus epidermidis. Type of assay: cell-based. The method, then: Treatment phase: The lumens of the eight catheters were treated with biofilm penetrating composition solutions as described in Table I. The N-acetylcysteine and rifampin are used at a concentration equivalent to ten times the corresponding minimal bactericidal concentration of the N-aceylcysteine and the rifampin for the studied strain of Staphylococcus epidermidis (3.1 mg/ml and 0.02 μg/ml respectively).

Assay [2] relates to Staphylococcus epidermidis. Briefly: Flush cultures of biofilm-colonised catheter lumens after treatment solutions (Example 1). Type of assay: cell-based. The procedure:
Seeding phase: A dynamic flow sterile system that consisted of an infusion bad containing a bacterial suspension of Staphylococcus epidermidis (4×10^5 cfu/ml of saline) that infused at equal (about 41 ml/hour) into the lumens of eight ethylene oxide gas sterilized, 7-french, 20 cm polyurethane, single-lumen catheters for 12 hours at room temperature. The catheters were covered plastic sheath to ensure sterility of the surfaces. The bacterial suspension drained from the catheters into beakers.
Growth phase: The lumens of the four catheters were infused with sterile trypticase soy broth (“TSB”) at a rate of 10 ml/hour for 24 hours to allow for biofilm formation. The infused broth drained from the catheters into the beakers. […]
The clamps were removed from each end of Catheters 1, 3, 5, and 7 and the treatment solutions were drained. […] Hundred microliter aliquots of the collected portions of the flushed TSB and 10-fold serial dilutions were inoculated onto chocolate agar plates and colony counts were determined after incubation of agar plates at 37° C. for 48 hours.

Usually MBC stands for the smallest concentration meeting the test's criterion for killing. Lower therefore signals greater bactericidal potency. Take `CC(=O)N[C@@H](CS)C(=O)O` [N-acetylcysteine]: the MBC in assay [1] was determined as 3100 µg/mL (≈ 19 mM). In addition, in assay [2] (Example 1 conclusion, 31 mg/ml in phosphate buffered saline), the “effect on biofilm and biofilm embedded microorganisms (in words)” value is “effectively penetrates and breaks-up the biofilm and kills biofilm embedded microorganisms”. The “antimicrobial activity against biofilm embedded microorganisms compared with rifampin (in words)” value in assay [2] (assessed by flush cultures, at the concentration used) is recorded as “surpasses the antimicrobial activity of rifampin”.

Take `CO[C@H]1/C=C/O[C@@]2(C)Oc3c(C)c(O)c4c(O)c(c(/C=N/N5CCN(C)CC5)c(O)c4c3C2=O)NC(=O)/C(C)=C\C=C\[C@H](C)[C@H](O)[C@@H](C)[C@@H](O)[C@@H](C)[C@H](OC(C)=O)[C@@H]1C` [rifampin]: in assay [1], the MBC was 0.02 µg/mL (≈ 2.43e-05 mM).
